We go through 99 molecules from a flash point compilation (Sun et al. 2020).

The structures appear in SMILES notation. Counter-ions that a name gives are not always drawn.

`CCOC(=O)CC(=O)OCC` [diethyl propanedioate] had a flash point of 93.00 °C. In the case of `CCCCCCOC(=O)c1ccccc1C(=O)OCCCCCC` [dihexyl benzene-1,2-dicarboxylate], the flash point turned out to be 177.00 °C. The figure for `CCCCCCOC(=O)CCCCC(=O)OCCCCCC` [dihexyl hexanedioate] is 163.00 °C; for `CCCCCCOC(=O)CCCCCCCC(=O)OCCCCCC` [dihexyl nonanedioate] it is 204.00 °C; for `COC(=O)c1ccccc1C(=O)OC` [dimethyl benzene-1,2-dicarboxylate] it is 146.00 °C. Next, `COC(=O)c1cccc(C(=O)OC)c1` [dimethyl benzene-1,3-dicarboxylate]: 138.00 °C; `COC(=O)c1ccc(C(=O)OC)cc1` [dimethyl benzene-1,4-dicarboxylate]: 153.00 °C; `COC(=O)CCCCC(=O)OC` [dimethyl hexanedioate]: 107.00 °C.

Regarding `[CH3][Hg][CH3]` [dimethylmercury], the flash point was determined as 5.00 °C. The figure for `CCCCCCCCCOC(=O)c1ccccc1C(=O)OCCCCCCCCC` [dinonyl benzene-1,2-dicarboxylate] is 216.00 °C; for `CCCCCCCCOC(=O)CCCCC(=O)OCCCCCCCC` [dioctyl hexanedioate] it is 196.00 °C; for `CCCCCOC(=O)c1ccccc1C(=O)OCCCCC` [dipentyl benzene-1,2-dicarboxylate] it is 181.00 °C. Next, `CCCOC(=O)c1ccc(C(=O)OCCC)nc1` [dipropyl pyridine-2,5-dicarboxylate]: 93.00 °C; `CCCCCCCCCCCCCOC(=O)c1ccccc1C(=O)OCCCCCCCCCCCCC` [ditridecyl benzene-1,2-dicarboxylate]: 238.00 °C. Molecule `C=CCCCCCCCCCC` [dodec-1-ene] yielded a flash point of 100.00 °C. Next, `CCCCCCCCCCCCO` [dodecan-1-ol]: 127.00 °C. Next, `CCCCCCCCCCCCS` [dodecane-1-thiol]: 88.00 °C; `CCCCCCCCCCCCc1ccccc1` [dodecylbenzene]: 135.00 °C.

`NCCN` [ethane-1,2-diamine] yielded a flash point of 34.00 °C. The figure for `OCCO` [ethane-1,2-diol] is 111.00 °C; for `CC` [ethane] it is -135.00 °C. The figure for `CC(=O)OO` [ethaneperoxoic acid] is 41.00 °C. `C=COC(C)=O` [ethenyl acetate] had a flash point of -8.00 °C. The figure for `C=COC(=O)CCC` [ethenyl butanoate] is 20.00 °C; for `CCOCC.FB(F)F` [ethoxyethane;trifluoroborane] it is 64.00 °C; for `CCOC(=O)CCl` [ethyl 2-chloroacetate] it is 38.00 °C. Next, `CCOC(=O)CC#N` [ethyl 2-cyanoacetate]: 110.00 °C; `CCOC(=O)Cc1ccccc1` [ethyl 2-phenylacetate]: 99.00 °C. Next, `CCOCCC(=O)OCC` [ethyl 3-ethoxypropanoate]: 59.00 °C; `CCOC(=O)CC(C)=O` [ethyl 3-oxobutanoate]: 57.00 °C; `CCOC(=O)NCCOc1ccc(Oc2ccccc2)cc1` [ethyl N-[2-(4-phenoxyphenoxy)ethyl]carbamate]: 224.00 °C.

In turn, `CCOC(C)=O` [ethyl acetate] gave a flash point of -4.00 °C. The figure for `CCOP(=O)(O)O` [ethyl dihydrogen phosphate] is 116.00 °C. Next, `CCOC=O` [ethyl formate]: -20.00 °C. Next, `CCOS(C)(=O)=O` [ethyl methanesulfonate]: 100.00 °C. For `C=CC(=O)OCC` [ethyl prop-2-enoate], the flash point amounted to 9.00 °C. Molecule `CCc1ccccc1` [ethylbenzene] registered a flash point of 15.00 °C. The figure for `Fc1ccccc1` [fluorobenzene] is -15.00 °C; for `C=O.O=C=Nc1ccccc1` [formaldehyde;isocyanatobenzene] it is 218.00 °C. The figure for `C=O` [formaldehyde] is 60.00 °C; for `NC=O` [formamide] it is 154.00 °C; for `O=CO` [formic acid] it is 69.00 °C. Next, `O=C1C=CC(=O)O1` [furan-2,5-dione]: 103.00 °C; `NCc1ccco1` [furan-2-ylmethanamine]: 37.00 °C; `C=CCCCCC` [hept-1-ene]: -4.00 °C. In turn, `CCCCCCCS` [heptane-1-thiol] returned a flash point of 46.00 °C. Next, `C=CCCCC` [hex-1-ene]: -26.00 °C; `CCCCCCCCCCCCCCCCS` [hexadecane-1-thiol]: 102.00 °C. Next, `CCCCCCN` [hexan-1-amine]: 29.00 °C; `CCCCC(C)O` (centres undefined) [hexan-2-ol]: 41.00 °C. The figure for `CCCCCCS` [hexane-1-thiol] is 20.00 °C. In turn, `CCCC(=O)C(C)=O` [hexane-2,3-dione] gave a flash point of 28.00 °C. The figure for `CC(=O)CCC(C)=O` [hexane-2,5-dione] is 79.00 °C. Next, `N#CCCCCC#N` [hexanedinitrile]: 93.00 °C. The figure for `CCCCCC(=O)O` [hexanoic acid] is 104.00 °C; for `C=C(C)C(=O)OCCCCCC` [hexyl 2-methylprop-2-enoate] it is 82.00 °C. The molecule `CCCCCCOC(C)=O` [hexyl acetate] registered a flash point of 37.00 °C. `S=C1NCCN1` [imidazolidine-2-thione] came in with a flash point of 252.00 °C. With `CCI` [iodoethane], the flash point is 61.00 °C. Next, `O=C=NC1CCCCC1` [isocyanatocyclohexane]: 49.00 °C; `C` [methane]: -188.00 °C; `S=C=S` [methanedithione]: -30.00 °C. The figure for `CS` [methanethiol] is -18.00 °C; for `CCOC` [methoxyethane] it is -37.00 °C; for `C=COC` [methoxyethene] it is -56.00 °C. `COC(=O)C(Cl)Cl` [methyl 2,2-dichloroacetate] showed a flash point of 80.00 °C. Next, `CNc1ccccc1C(=O)OC` [methyl 2-(methylamino)benzoate]: 91.00 °C; `COC(=O)C(C)Oc1ccc(Oc2ccc(Cl)cc2Cl)cc1` (centres undefined) [methyl 2-[4-(2,4-dichlorophenoxy)phenoxy]propanoate]: 38.00 °C; `COC(=O)c1ccccc1O` [methyl 2-hydroxybenzoate]: 96.00 °C. In turn, `COS(=O)(=O)c1ccc(C)cc1` [methyl 4-methylbenzenesulfonate] displayed a flash point of 152.00 °C. Next, `COC(=O)c1ccc(C)cc1` [methyl 4-methylbenzoate]: 96.00 °C; `COC(=O)/C=C(\C)OP(=O)(OC)OC` [methyl (E)-3-dimethoxyphosphoryloxybut-2-enoate]: 79.00 °C; `COC(C)=O` [methyl acetate]: -10.00 °C.

Molecule `CCCC(=O)OC` [methyl butanoate] showed a flash point of 14.00 °C. Next, `CCCCCC(=O)OC` [methyl hexanoate]: 73.00 °C; `COS(C)(=O)=O` [methyl methanesulfonate]: 104.00 °C.

On to `CCCCCCCCCCCCCCCCCC(=O)OC` [methyl octadecanoate], for which the flash point was 153.00 °C. The figure for `C=CC(=O)OC` [methyl prop-2-enoate] is 7.00 °C. The figure for `CCC(=O)OC` [methyl propanoate] is -2.00 °C; for `CS(C)=O` [methylsulfinylmethane] it is 95.00 °C.

The molecule `Nc1cccc2ccccc12` [naphthalen-1-amine] showed a flash point of 157.00 °C.

Molecule `Oc1cccc2c(O)cccc12` [naphthalene-1,5-diol] registered a flash point of 252.00 °C. Next, `c1ccc2ccccc2c1` [naphthalene]: 88.00 °C; `C[N+](=O)[O-]` [nitromethane]: 35.00 °C. As to `C=CCCCCCCC` [non-1-ene], the flash point came out at 26.00 °C. Next, `CCCCCCCCC=O` [nonanal]: 83.00 °C; `O=C(O)CCCCCCCC(=O)O` [nonanedioic acid]: 210.00 °C; `CCCCCCCCC(=O)O` [nonanoic acid]: 133.00 °C.

For the molecule `C=CCCCCCC` [oct-1-ene], the flash point stood at 21.00 °C. The figure for `CCCCCCCCCCCCCCCCCCN` [octadecan-1-amine] is 149.00 °C; for `CCCCCCCCCCCCCCCCCCS` [octadecane-1-thiol] it is 185.00 °C. Next, `CCCCCCCCCCCCCCCCCCOC(=O)CCCCCCCCCCCCCCC` [octadecyl hexadecanoate]: 238.00 °C. Next, `CCCCCC(=O)CC` [octan-3-one]: 46.00 °C; `CCCCCCCC=O` [octanal]: 52.00 °C.

The molecule `CCCCCCCC(=O)O` [octanoic acid] returned a flash point of 110.00 °C.

In the case of `C=C(C)C(=O)OCCCCCCCC` [octyl 2-methylprop-2-enoate], the flash point was 91.00 °C. Next, `C=CC(=O)OCCCCCCCC` [octyl prop-2-enoate]: 82.00 °C; `O=CC=O` [oxaldehyde]: 220.00 °C; `O=C1CCO1` [oxetan-2-one]: 70.00 °C.
